This is an account of results in patent US11066357B2, “Benzoannulene derivatives as antiviral agents” (Southern Research Institute, priority 2017, dated 2021).

One series concerns CHIKV. Briefly: antiviral activity (EC50), Table 1. It counts as cell-based. The conditions noted are these: Chikungunya virus.
The nature of series [1]: cytotoxicity (CC50), Table 1.

In the case of `COc1cc2c(cc1C(=O)Nc1cccnc1SC)CCCCC2` [Compound 34, 3-methoxy-N-(2-(methylthio)pyridin-3-yl)-6,7,8,9-tetrahydro-5H-benzo[7]annulene-2-carboxamide], the EC50 in the series on CHIKV is greater than 40 µM. In addition, the CC50 in series [1] is greater than 40 µM.
`CCn1ccc(NC(=O)c2cc3c(cc2OC)CCCCC3)n1` [Compound 35, N-(1-ethyl-1H-pyrazol-3-yl)-3-methoxy-6,7,8,9-tetrahydro-5H-benzo[7]annulene-2-carboxamide] yielded an EC50 in the series with CHIKV of 17.4 µM. Further, the CC50 in series [1] was greater than 40 µM.
In the series with CHIKV, `COc1nc2c(cc1C(=O)Nc1ccc(C(C)(C)C)cc1)CCCCC2` [Compound 36, N-(4-(tert.-butyl)phenyl)-2-methoxy-6,7,8,9-tetrahydro-5H-cyclohepta[b]pyridine-3-carboxamide] returned an EC50 of 1.71 µM. Also, the CC50 in series [1] was greater than 40 µM.
Taken in the same sequence, the figures for `COc1nc2c(cc1C(=O)Nc1ccc(C(C)(C)C)cn1)CCCCC2` [Compound 37, N-(5-(tert.-butyl)pyridin-2-yl)-2-methoxy-6,7,8,9-tetrahydro-5H-cyclohepta[b]pyridine-3-carboxamide] were 13.6 µM and greater than 40 µM.
`COc1nc2c(cc1C(=O)Nc1ncc(C(C)(C)C)cn1)CCCCC2` [Compound 38, N-(5-(tert.-butyl)pyrimidin-2-yl)-2-methoxy-6,7,8,9-tetrahydro-5H-cyclohepta[b]pyridine-3-carboxamide] gave an EC50 with CHIKV of 19.4 µM. The same compound displayed a CC50 in series [1] greater than 40 µM.
Take `CCn1nc(NC(=O)c2cc3c(nc2OC)CCCCC3)cc1C` [Compound 39, N-(1-ethyl-5-methyl-1H-pyrazol-3-yl)-2-methoxy-6,7,8,9-tetrahydro-5H-cyclohepta[b]pyridine-3-carboxamide]: in the series with CHIKV, the EC50 was 30.7 µM. The compound also registered a CC50 in series [1] greater than 40 µM.
For the compound `COc1nc2c(cc1C(=O)Nc1ccc(C(C)(C)C(=O)O)cc1)CCCCC2` [Compound 40, 2-(4-(2-methoxy-6,7,8,9-tetrahydro-5H-cyclohepta[b]pyridine-3-carboxamido)phenyl)-2-methylpropanoic acid], the EC50 with CHIKV is greater than 40 µM. The CC50 in series [1] was greater than 40 µM.
